For 11 compounds, DC50 and Dmax results are on record in US12599672B2, “KRAS proteolysis targeting chimeras” (PAQ Therapeutics Inc., priority 2023, dated 2026).

Molecules are shown by their SMILES.

One test has as its target T1, KRAS G12V (Homo sapiens, UniProt P01116, G12V).
T1 construct: SW620-KRAS (G12V)-HiBit-KI cell (Pharmaron); host or cells: SW620-KRAS (G12V)-HiBit-KI cells (HiBiT knock-in at the endogenous KRAS locus)
The test is described as follows: KRAS G12V HiBit assay. To be noted: SW620-KRAS (G12V)-HiBit-KI cells, compound treatment for 24 hours, class symbols. The test is classed as cell-based. How it is done: Day 1. […] Rinsed cultivated cells in T-75 flasks with 5 mL PBS (Solarbio, P1020-500). […] Inactivated trypsin by adding excessive serum containing medium. Harvested the cells from flask into cell culture medium and counted the cell number.
Day 2. Test compounds were dissolved at 0.3 mM in DMSO (Solarbio, D8371) as stock solution. […] Performed 3-fold, 10-points dilution via transferring 15 μL compound into 30 μL DMSO by using TECAN liquid handler (TECAN, Freedom EVO200). […] After compound treatment for 24 hours, the plate was removed from incubators and equilibrated at room temperature for 15 minutes. Prepare the HiBit reagent (Promega, N3040) by mixing 10 mL of Nano-Glo®-HiBiT Lytic Buffer with 200 μL of Nano-Glo®-HiBiT Lytic Substrate and 100 μL of LgBiT Protein. Added 20 μL of HiBit reagent into each well of the cell plate and spun the plates at room temperature at 1,000 RPM for 1 minute.
The degradation activity was calculated using the following formula:
[formula] where HC (high control) is obtained from cells treated with 0.1% DMSO only.
For orientation: With HiBiT, luminescence reflects the tagged protein that the partner subunit can reach.

The target of the next test is T2, KRAS G12D (Homo sapiens, UniProt P01116, G12D).
T2 construct: AsPc-1-KRAS (G12D)-HiBit-KI cell (Pharmaron); host or cells: AsPc-1-KRAS (G12D)-HiBit-KI cells (HiBiT knock-in at the endogenous KRAS locus)
As to the kind of experiment: KRAS G12D HiBit assay. The test is classed as cell-based. To be noted: AsPc-1-KRAS (G12D)-HiBit-KI cell, compound treatment for 24 hours; for DC50: absolute DC50. In a few lines:
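Cells were treated for 24 h with compounds in a 3-fold, 10-point dilution series from a 0.3 mM DMSO stock, then equilibrated 15 min at room temperature. KRAS G12D HiBiT levels were read by luminescence after lytic Nano-Glo HiBiT reagent with LgBiT; inhibition calculated relative to 0.1% DMSO high control.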

Setting [1] is: numeric bounds given in place of class symbols.

T2 sequence (P01116 1-188 isoform P01116-2 G12D): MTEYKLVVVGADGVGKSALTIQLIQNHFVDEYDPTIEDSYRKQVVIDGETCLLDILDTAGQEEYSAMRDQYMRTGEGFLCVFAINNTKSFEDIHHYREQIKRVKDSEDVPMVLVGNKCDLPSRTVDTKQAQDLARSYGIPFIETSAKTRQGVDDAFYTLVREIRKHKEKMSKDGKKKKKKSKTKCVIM
T1 sequence (P01116 1-188 isoform P01116-2 G12V): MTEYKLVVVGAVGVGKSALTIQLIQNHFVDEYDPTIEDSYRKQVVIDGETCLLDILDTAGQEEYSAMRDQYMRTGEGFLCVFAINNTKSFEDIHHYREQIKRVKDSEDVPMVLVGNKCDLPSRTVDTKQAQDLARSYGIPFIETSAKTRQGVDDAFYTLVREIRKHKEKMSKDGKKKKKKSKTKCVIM

Compound `C#Cc1c(F)ccc2cc(O)cc(-c3ncc4c(N5CCCC(F)(F)C5)nc(OCC5(CN6CCN(CC7CCN(c8ccc9c(c8)n(C)c(=O)n9C8CCC(=O)NC8=O)CC7)CC6)CC5)nc4c3F)c12` (stereo not shown) [Compound 17, 3-(5-(4-((4-((1-(((4-(3,3-Difluoropiperidin-1-yl)-7-(8-ethynyl-7-fluoro-3-hydroxynaphthalen-1-yl)-8-fluoropyrido[4,3-d]pyrimidin-2-yl)oxy)methyl)cyclopropyl)methyl)piperazin-1-yl)methyl)piperidin-1-yl)-3-methyl-2-oxo-2,3-dihydro-1H-benzo[d]imidazol-1-yl) piperidine-2,6-dione] displayed a DC50 at KRAS G12V above 100 nM. On KRAS G12D (class symbols), this compound registered a DC50 below 100 nM and a Dmax above 50%.

Compound `C[C@H]1CN(CC(=O)N2CCC(CN3CCC(c4ccc5c(c4)n(C)c(=O)n5C4CCC(=O)NC4=O)CC3)CC2)CCCN1c1nccc(-c2noc([C@@]3(C)CCCc4sc(N)c(C#N)c43)n2)n1` (stereo partly drawn) [Compound 210, (4S)-2-amino-4-(3-{2-[(2S)-4-{2-[4-({4-[1-(2,6-dioxopiperidin-3-yl)-3-methyl-2-oxo-1,3-benzodiazol-5-yl]piperidin-1-yl}methyl)piperidin-1-yl]-2-oxoethyl}-2-methyl-1,4-diazepan-1-yl]pyrimidin-4-yl}-1,2,4-oxadiazol-5-yl)-4-methyl-6,7-dihydro-5H-1-benzothiophene-3-carbonitrile] came in with a DC50 at KRAS G12V above 100 nM. At KRAS G12D (class symbols), the DC50 was above 300 nM and the Dmax is 15 to 50%.

For the compound `C#Cc1c(F)ccc2cccc(-c3ncc4c(N5CCC[C@@](C)(O)C5)nc(OC[C@@]56CCCN5[C@@H](COC(=O)N5CCC(CN7CCC(c8ccc9c(c8)n(C)c(=O)n9C8CCC(=O)NC8=O)CC7)CC5)CC6)nc4c3F)c12` (stereo partly shown) [Compound 138], the DC50 on KRAS G12V and at KRAS G12D (setting [1]) was above 100 nM each time.

As for `CCc1c(F)ccc2cc(O)cc(-c3ncc4c(N5CCC[C@@](C)(O)C5)nc(OC[C@@]56CCCN5[C@H](COC(=O)N5CCC(C#Cc7cccc8c7n(C)c(=O)n8C7CCC(=O)NC7=O)CC5)CC6)nc4c3F)c12` (stereo partly drawn) [Compound 403, ((3S,7aS)-7a-(((7-(8-ethyl-7-fluoro-3-hydroxynaphthalen-1-yl)-8-fluoro-4-((R)-3-hydroxy-3-methylpiperidin-1-yl)pyrido[4,3-d]pyrimidin-2-yl)oxy)methyl)hexahydro-1H-pyrrolizin-3-yl)methyl 4-((1-(2,6-dioxopiperidin-3-yl)-3-methyl-2-oxo-2,3-dihydro-1H-benzo[d]imidazol-4-yl)ethynyl)piperidine-1-carboxylate], the DC50 on KRAS G12V and on KRAS G12D (setting [1]) was above 100 nM each time.

On to `CCc1c(F)ccc2cccc(-c3ncc4c(N5CCC[C@@](C)(O)C5)nc(OC[C@@]56CCCN5[C@H](COC(=O)NCCOc5ccc7c(c5)n(C)c(=O)n7C5CCC(=O)NC5=O)CC6)nc4c3F)c12` (stereo partly drawn) [Compound 111, ((3S,7aS)-7a-(((7-(8-ethyl-7-fluoronaphthalen-1-yl)-8-fluoro-4-((R)-3-hydroxy-3-methylpiperidin-1-yl)pyrido[4,3-d]pyrimidin-2-yl)oxy)methyl)hexahydro-1H-pyrrolizin-3-yl)methyl (2-((1-(2,6-dioxopiperidin-3-yl)-3-methyl-2-oxo-2,3-dihydro-1H-benzo[d]imidazol-5-yl)oxy)ethyl) carbamate], for which the DC50 at KRAS G12V is above 100 nM; on KRAS G12D (class symbols), above 300 nM.

For the compound `C#Cc1c(F)ccc2cccc(-c3ncc4c(N5CCC[C@@](C)(O)C5)nc(OCC5(CN6CCC(N7CCC(c8cccc9c8n(C)c(=O)n9C8CCC(=O)NC8=O)CC7)CC6)CC5)nc4c3F)c12` (stereo partly shown) [Compound 74], the DC50 on KRAS G12V is above 100 nM; at KRAS G12D (class symbols) it was above 300 nM.

`CCc1c(F)ccc2cc(O)cc(-c3ncc4c(N5CCC(O)CC5)nc(OC[C@@]56CCCN5[C@H](COC(=O)N5CCC7(CC5)CC(N5CCC(c8ccc9c(c8)n(C)c(=O)n9C8CCC(=O)NC8=O)CC5)C7)CC6)nc4c3F)c12` (stereo partly drawn) [Compound 358, ((3S,7aS)-7a-(((7-(8-ethyl-7-fluoro-3-hydroxynaphthalen-1-yl)-8-fluoro-4-(4-hydroxypiperidin-1-yl)pyrido[4,3-d]pyrimidin-2-yl)oxy)methyl)hexahydro-1H-pyrrolizin-3-yl)methyl 2-(4-(1-(2,6-dioxopiperidin-3-yl)-3-methyl-2-oxo-2,3-dihydro-1H-benzo[d]imidazol-5-yl)piperidin-1-yl)-7-azaspiro[3.5]nonane-7-carboxylate]: the figures for the DC50 on KRAS G12V and at KRAS G12D (class symbols) were below 10 nM and below 100 nM, respectively.

For the compound `C#Cc1c(F)ccc2cccc(-c3ncc4c(N5CCC[C@@](C)(O)C5)nc(OC[C@@]56CCCN5[C@H](COC(=O)N5CCC(COC7CN(c8ccc9c(c8)n(C)c(=O)n9C8CCC(=O)NC8=O)C7)CC5)CC6)nc4c3F)c12` (stereo partly shown) [Compound 153], the DC50 on KRAS G12V and at KRAS G12D (setting [1]) was above 100 nM throughout.

With `CCc1c(F)ccc2cc(O)cc(-c3ncc4c(N5CCC[C@@](C)(O)C5)nc(OC[C@@]56CCCN5[C@H](COC(=O)N5CCC(CN7CC8(CCC(c9ccc%10c(c9)n(C)c(=O)n%10C9CCC(=O)NC9=O)CC8)C7)CC5)CC6)nc4c3F)c12` (stereo partly drawn) [Compound 364, ((3S,7aS)-7a-(((7-(8-ethyl-7-fluoro-3-hydroxynaphthalen-1-yl)-8-fluoro-4-((R)-3-hydroxy-3-methylpiperidin-1-yl)pyrido[4,3-d]pyrimidin-2-yl)oxy)methyl)hexahydro-1H-pyrrolizin-3-yl)methyl 4-((7-(1-(2,6-dioxopiperidin-3-yl)-3-methyl-2-oxo-2,3-dihydro-1H-benzo[d]imidazol-5-yl)-2-azaspiro[3.5]nonan-2-yl)methyl)piperidine-1-carboxylate], the DC50 is below 10 nM at KRAS G12V and below 100 nM on KRAS G12D (class symbols).

`CCc1c(F)ccc2cc(O)cc(-c3ncc4c(N5CCC[C@@](C)(O)C5)cc(OC[C@@]56CCCN5[C@H](COC(=O)N5CCC(CN7CCC(c8ccc9c(c8)n(C)c(=O)n9C8CCC(=O)NC8=O)CC7)CC5)CC6)nc4c3F)c12` (stereo partly drawn) [Compound 492, ((3S,7aS)-7a-(((7-(8-ethyl-7-fluoro-3-hydroxynaphthalen-1-yl)-8-fluoro-4-((R)-3-hydroxy-3-methylpiperidin-1-yl)-1,6-naphthyridin-2-yl)oxy)methyl)hexahydro-1H-pyrrolizin-3-yl)methyl 4-((4-(1-(2,6-dioxopiperidin-3-yl)-3-methyl-2-oxo-2,3-dihydro-1H-benzo[d]imidazol-5-yl)piperidin-1-yl)methyl)piperidine-1-carboxylate]: the DC50 was above 100 nM at KRAS G12V and below 100 nM on KRAS G12D (class symbols).

Turning to `C#Cc1c(F)ccc2cccc(-c3ncc4c(N5CCC[C@@](C)(O)C5)nc(OC[C@@]56CCCN5[C@H](COC(=O)NCCOc5ccc7c(c5)n(C)c(=O)n7C5CCC(=O)NC5=O)CC6)nc4c3F)c12` (stereo partly drawn) [Compound 106, ((3S,7aS)-7a-(((7-(8-ethynyl-7-fluoronaphthalen-1-yl)-8-fluoro-4-((R)-3-hydroxy-3-methylpiperidin-1-yl)pyrido[4,3-d]pyrimidin-2-yl)oxy)methyl)hexahydro-1H-pyrrolizin-3-yl)methyl (2-((1-(2,6-dioxopiperidin-3-yl)-3-methyl-2-oxo-2,3-dihydro-1H-benzo[d]imidazol-5-yl)oxy)ethyl) carbamate], the DC50 was above 100 nM on KRAS G12V and above 300 nM at KRAS G12D (class symbols). Besides, the Dmax on KRAS G12D (class symbols) is below 15%.
